Experimental data from PubChem BioAssay (NCI).
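Results reflect a 48-hour exposure of cells in 96-well plates to compound at five concentrations. GI50 is the concentration that inhibits growth by half. TGI: total growth inhibition.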

Columns and labels:
Assay in all cases: inhibition of tumour cell growth, NCI panel, 48 h
[1] = system: PC-3 prostate
[2] = system: NCI-H226 lung
[3] = system: UACC-62 melanoma
[4] = system: SF-295 CNS
[5] = system: SK-MEL-5 melanoma
[6] = system: CCRF-CEM leukemia
[7] = system: SR leukemia
[8] = system: SF-268 CNS
[9] = system: MDA-MB-231 breast
[10] = system: M14 melanoma
[11] = system: OVCAR-5 ovarian
[12] = system: IGROV1 ovarian
[13] = system: K-562 leukemia
[14] = system: HCC-2998 colon
[15] = system: OVCAR-8 ovarian
[16] = system: HL-60(TB) leukemia
[17] = system: HOP-92 NSCLC
[18] = system: A498 renal
[19] = system: OVCAR-3 ovarian
[20] = system: NCI/ADR-RES ovarian
[21] = system: EKVX NSCLC
[22] = system: SF-539 CNS
[23] = system: HCT-116 colon
[24] = system: NCI-H23 lung
[25] = system: LOX IMVI melanoma
[26] = system: SK-MEL-2 melanoma
[27] = system: KM12 colon
[28] = system: BT-549 breast
[29] = system: RXF 393 renal
[30] = system: MCF7 breast
[31] = system: SN12C renal
[32] = system: TK-10 renal
[33] = system: U251 CNS
[34] = system: HT29 colon
[35] = system: T-47D breast
[36] = system: DU-145 prostate
[37] = system: MOLT-4 leukemia
[38] = system: NCI-H522 lung
[39] = system: SK-OV-3 ovarian
[40] = system: HOP-62 NSCLC
[41] = system: SNB-19 CNS
[42] = system: HCT-15 colon
[43] = system: ACHN renal
[44] = system: SNB-75 CNS
[45] = system: 786-0 renal
[46] = system: MALME-3M melanoma
[47] = system: OVCAR-4 ovarian
[48] = system: CAKI-1 renal
[49] = system: HS 578T breast
[50] = system: RPMI-8226 leukemia
[51] = system: MDA-MB-435
[52] = system: NCI-H460 lung
[53] = system: COLO 205 colon
[54] = system: SW-620 colon
[55] = system: SK-MEL-28 melanoma

Compound: COc1cc2c(cc1OCCCN1CCN(c3cc(=O)oc4c(C)c(OC)ccc34)CC1)N=C[C@@H]1CCCN1C2=O
- GI50 [1]: 1190 nM
- TGI [1]: 12800 nM
- GI50 [2]: 1880 nM
- TGI [2]: 4030 nM
- GI50 [3]: 1360 nM
- TGI [3]: 2870 nM
- GI50 [4]: 2490 nM
- TGI [4]: > 30400 nM
- GI50 [5]: 1610 nM
- TGI [5]: 3830 nM
- GI50 [6]: 122 nM
- TGI [6]: 1360 nM
- GI50 [7]: 248 nM
- TGI [7]: 598 nM
- GI50 [8]: 910 nM
- TGI [8]: > 20900 nM
- GI50 [9]: 984 nM
- TGI [9]: 5990 nM
- GI50 [10]: 1240 nM
- TGI [10]: 2690 nM
- GI50 [11]: 1340 nM
- TGI [11]: > 100000 nM
- GI50 [12]: 1570 nM
- TGI [12]: 6050 nM
- GI50 [13]: 456 nM
- TGI [13]: > 20900 nM
- GI50 [14]: 1440 nM
- TGI [14]: 2890 nM
- GI50 [15]: 2620 nM
- TGI [15]: > 100000 nM
- GI50 [16]: 456 nM
- TGI [16]: 3830 nM
- GI50 [17]: 329 nM
- TGI [17]: 1810 nM
- GI50 [18]: 2020 nM
- TGI [18]: 3960 nM
- GI50 [19]: 471 nM
- TGI [19]: 3650 nM
- GI50 [20]: 16600 nM
- TGI [20]: > 88500 nM
- GI50 [21]: 4050 nM
- TGI [21]: > 47300 nM
- GI50 [22]: 1730 nM
- TGI [22]: 7970 nM
- GI50 [23]: 1160 nM
- TGI [23]: 8940 nM
- GI50 [24]: 1890 nM
- TGI [24]: 5200 nM
- GI50 [25]: 826 nM
- TGI [25]: 6870 nM
- GI50 [26]: 1090 nM
- TGI [26]: 3980 nM
- GI50 [27]: 1650 nM
- TGI [27]: 9110 nM
- GI50 [28]: 1210 nM
- TGI [28]: 6960 nM
- GI50 [29]: 424 nM
- TGI [29]: 1020 nM
- GI50 [30]: 787 nM
- TGI [30]: > 39700 nM
- GI50 [31]: 1600 nM
- TGI [31]: 6510 nM
- GI50 [32]: 1670 nM
- TGI [32]: > 100000 nM
- GI50 [33]: 1580 nM
- TGI [33]: > 100000 nM
- GI50 [34]: 1160 nM
- GI50 [35]: 1170 nM
- GI50 [36]: 935 nM
- TGI [36]: > 100000 nM
- GI50 [37]: 372 nM
- TGI [37]: 3700 nM
- GI50 [38]: 126 nM
- TGI [38]: 1930 nM
- GI50 [39]: 10200 nM
- TGI [39]: > 78400 nM
- GI50 [40]: 1640 nM
- TGI [40]: 10300 nM
- GI50 [41]: 2520 nM
- TGI [41]: > 100000 nM
- GI50 [42]: 3060 nM
- TGI [42]: > 37600 nM
- GI50 [43]: 1860 nM
- TGI [43]: 4550 nM
- GI50 [44]: 866 nM
- TGI [44]: 3220 nM
- GI50 [45]: 1050 nM
- TGI [45]: 9620 nM
- GI50 [46]: 1160 nM
- TGI [46]: 3590 nM
- GI50 [47]: 2000 nM
- TGI [47]: 10100 nM
- GI50 [48]: 2460 nM
- TGI [48]: 7170 nM
- GI50 [49]: 2350 nM
- TGI [49]: 15600 nM
- GI50 [50]: 214 nM
- TGI [50]: 1320 nM
- GI50 [51]: 1590 nM
- TGI [51]: 3790 nM
- GI50 [52]: 1450 nM
- TGI [52]: > 26400 nM
- GI50 [53]: 268 nM
- TGI [53]: 1430 nM
- GI50 [54]: 1810 nM
- TGI [54]: > 100000 nM
- GI50 [55]: 2560 nM
- TGI [55]: 8450 nM
